{"source": "patent US6268181A", "about": "“Methods for producing a potentiator of Bacillus pesticidal activity” (Valent BioSciences, Corporation, priority 1998, dated 2001)", "key": {"Phytophthora medicaginis": {"tested_on": "Phytophthora medicaginis", "conditions": "cited from earlier work"}, "Spodoptera exigua": {"tested_on": "Spodoptera exigua", "assay": "Spodoptera exigua micro-bioassay (potentiation of Bt Cry protein by Ia)", "format": "in vivo", "conditions": "for Mortality: after 2 days", "experimental": "Activity is monitored by a Spodoptera exigua micro-bioassay, and purity is determined by capillary electrophoresis. […] The trays containing the various samples are air dried. Two to four 2nd or early 3rd instar Spodoptera exigua are added to the wells containing the dried sample. The wells are sealed with mylar poked with holes and are incubated for 2-3 days at 30° C. Degree of stunting and percent mortality are then recorded. Typically, 5 replicate wells are run for each sample.\n*Mortality = # insects dead/# total insects after 2 days\n.dagger.Stunt score is defined by the average size of the live insect\nlarvae at the end of the bioassay: 4.0 = untreated control, 3.0 = 75% size\nof untreated control, 2.0 = 50% size of untreated control, 1.0 = 25% size\nof untreated control, 0.0 = no growth or size unchanged from start of […]"}, "[1]": {"conditions": "Table II, 120 μg/ml, without Ia"}, "[2]": {"conditions": "Table II, 240 μg/ml, without Ia"}}}
{"molecule": "NC(=O)NCC(NC(=O)C(O)C(O)C(N)C(O)CC(O)C(N)CO)C(N)=O", "note": "(stereo not shown) [zwittermicin A]", "values": [{"measurement": "infection of alfalfa", "setting": "Phytophthora medicaginis; alfalfa", "value": "reduces the infection"}, {"measurement": "growth of Phytophthora medicaginis", "setting": "Phytophthora medicaginis; plant pathogen", "value": "inhibits the growth"}]}
{"molecule": "CryIA(c): Bt crystal delta-endotoxin; truncated in Table I, full-length (130 kDa) in Table II", "values": [{"measurement": "Stunt Score", "setting": "Spodoptera exigua; Table II, 0.8 μg/ml, with Ia", "value": 1.6}, {"measurement": "Mortality", "setting": "Spodoptera exigua; Table II, 0.8 μg/ml, with Ia", "value": "2/5"}, {"measurement": "Stunt Score", "setting": "Spodoptera exigua; Table II, 3 μg/ml, with Ia", "value": 1.0}, {"measurement": "Mortality", "setting": "Spodoptera exigua; Table II, 3 μg/ml, with Ia", "value": "4/5"}, {"measurement": "Stunt Score", "setting": "Spodoptera exigua; Table II, 15 μg/ml, with Ia", "value": 0.0}, {"measurement": "Mortality", "setting": "Spodoptera exigua; Table II, 15 μg/ml, with Ia", "value": "4/5"}, {"measurement": "Mortality", "setting": "Spodoptera exigua; Table II, 30 μg/ml, with Ia", "value": "5/5"}, {"measurement": "Stunt Score", "setting": "Spodoptera exigua; Table II, 30 μg/ml, without Ia", "value": 4.0}, {"measurement": "Mortality", "setting": "Spodoptera exigua; Table II, 30 μg/ml, without Ia", "value": "0/5"}, {"measurement": "Mortality", "setting": "Spodoptera exigua; Table II, 60 μg/ml, with Ia", "value": "5/5"}, {"measurement": "Stunt Score", "setting": "Spodoptera exigua; Table II, 60 μg/ml, without Ia", "value": 2.2}, {"measurement": "Mortality", "setting": "Spodoptera exigua; Table II, 60 μg/ml, without Ia", "value": "0/5"}, {"measurement": "Stunt Score", "setting": "Spodoptera exigua; [1]", "value": 2.2}, {"measurement": "Mortality", "setting": "Spodoptera exigua; [1]", "value": "0/5"}, {"measurement": "Stunt Score", "setting": "Spodoptera exigua; [2]", "value": 0.5}, {"measurement": "Mortality", "setting": "Spodoptera exigua; [2]", "value": "1/5"}, {"measurement": "concentration giving same mortality/stunt score as protein with Ia", "setting": "Spodoptera exigua; protein alone, full-length CryIA(c), CryII, CryIC", "value": 240, "unit": "µg/mL"}, {"measurement": "Mortality", "setting": "Spodoptera exigua; truncated Bt protein, OD280 0.0006, with Ia", "value": "1/5"}, {"measurement": "Stunt Score", "setting": "Spodoptera exigua; truncated Bt protein, OD280 0.0006, with Ia, 4.0 = untreated control, 0.0 = no growth", "value": 1.0}, {"measurement": "Mortality", "setting": "Spodoptera exigua; truncated Bt protein, OD280 0.0012, with Ia", "value": "0/5"}, {"measurement": "Stunt Score", "setting": "Spodoptera exigua; truncated Bt protein, OD280 0.0012, with Ia, 4.0 = untreated control, 0.0 = no growth", "value": 1.0}, {"measurement": "Mortality", "setting": "Spodoptera exigua; truncated Bt protein, OD280 0.0025, with Ia", "value": "2/5"}, {"measurement": "Stunt Score", "setting": "Spodoptera exigua; truncated Bt protein, OD280 0.0025, with Ia, 4.0 = untreated control, 0.0 = no growth", "value": 2.0}, {"measurement": "Mortality", "setting": "Spodoptera exigua; truncated Bt protein, OD280 0.005, with Ia", "value": "1/5"}, {"measurement": "Stunt Score", "setting": "Spodoptera exigua; truncated Bt protein, OD280 0.005, with Ia, 4.0 = untreated control, 0.0 = no growth", "value": 0.0}, {"measurement": "Mortality", "setting": "Spodoptera exigua; truncated Bt protein, OD280 0.010, with Ia", "value": "0/5"}, {"measurement": "Stunt Score", "setting": "Spodoptera exigua; truncated Bt protein, OD280 0.010, with Ia, 4.0 = untreated control, 0.0 = no growth", "value": 0.2}, {"measurement": "Mortality", "setting": "Spodoptera exigua; truncated Bt protein, OD280 0.020, with Ia", "value": "1/5"}, {"measurement": "Stunt Score", "setting": "Spodoptera exigua; truncated Bt protein, OD280 0.020, with Ia, 4.0 = untreated control, 0.0 = no growth", "value": 0.0}, {"measurement": "Mortality", "setting": "Spodoptera exigua; truncated Bt protein, OD280 0.020, without Ia", "value": "0/5"}, {"measurement": "Stunt Score", "setting": "Spodoptera exigua; truncated Bt protein, OD280 0.020, without Ia, 4.0 = untreated control, 0.0 = no growth", "value": 2.8}, {"measurement": "Mortality", "setting": "Spodoptera exigua; truncated Bt protein, OD280 0.040, without Ia", "value": "0/5"}, {"measurement": "Stunt Score", "setting": "Spodoptera exigua; truncated Bt protein, OD280 0.040, without Ia, 4.0 = untreated control, 0.0 = no growth", "value": 2.6}, {"measurement": "Mortality", "setting": "Spodoptera exigua; truncated Bt protein, OD280 0.075, without Ia", "value": "0/5"}, {"measurement": "Stunt Score", "setting": "Spodoptera exigua; truncated Bt protein, OD280 0.075, without Ia, 4.0 = untreated control, 0.0 = no growth", "value": 3.4}, {"measurement": "OD280 giving same stunt score as protein with Ia", "setting": "Spodoptera exigua; truncated CryIA(c), tested alone", "value": 0.075, "unit": "OD280"}, {"measurement": "OD280 giving same stunt score as protein alone", "setting": "Spodoptera exigua; truncated CryIA(c), with Ia", "value": 0.0006, "unit": "OD280"}, {"measurement": "concentration giving same mortality/stunt score as protein alone", "setting": "Spodoptera exigua; with Ia, full-length CryIA(c), CryII inclusions, CryIC inclusions", "value": 0.75, "unit": "µg/mL"}]}
